Experimental data as given in BigSolDB 2.1.

CC(C)(C)C(=O)C(Oc1ccc(Cl)cc1)n1ccnc1 (centres undefined)
solubility (mole fraction)
Details | 278.15 K | 283.15 K | 288.15 K | 293.15 K | 298.15 K | 303.15 K | 308.15 K | 313.15 K | 318.15 K
in ethanol | 0.0801 | 0.0952 | 0.112 | 0.133 | 0.159 | 0.184 | 0.215 | 0.249 | 0.287
in n-butanol | 0.0804 | 0.0957 | 0.112 | 0.132 | 0.156 | 0.18 | 0.209 | 0.243 | 0.282
in n-heptanol | 0.0686 | 0.0797 | 0.0937 | 0.111 | 0.131 | 0.152 | 0.18 | 0.21 | 0.245
in n-hexanol | 0.073 | 0.0858 | 0.0999 | 0.119 | 0.141 | 0.164 | 0.192 | 0.223 | 0.263
in n-pentanol | 0.0781 | 0.0912 | 0.107 | 0.127 | 0.15 | 0.174 | 0.204 | 0.238 | 0.273
in n-propanol | 0.0842 | 0.0998 | 0.117 | 0.139 | 0.165 | 0.19 | 0.22 | 0.254 | 0.29
